{"source": "patent US20030157708A1", "about": "“Cell stimulation apparatus and a cell stimulation method” (priority 2001, published 2003)", "format_in_all_cases": "cell-based, mice", "key": {"[1]": {"test_system": "ErbB4", "assay": "ErbB4 tyrosine-phosphorylation activity of conditioned media (immunoprecipitation / anti-phosphotyrosine blot)", "conditions": "PMA stimulation for 60 minutes", "protocol": "In B, pontine nuclei neurons and granule cells with and without transfection of the transmembrane form of NRG were prepared and stimulated by PMA for 60 minutes and then the conditioned media were collected. Tyrosin-phosphorylation activity of the conditioned media was examined using cerebellar granule cells. The granule cell cultures were stimulated for 5 to 10 minutes with the conditioned media that were collected and concentrated. Lysates from granule cells were resolved by SDS-PAGE, and the blot was probed with an anti-phosphotyrosine antibody (4G10) after immunoprecipitation with anti-ErbB4 antibody. Tyrosine-phosphorylated bands of 180 kD were observed by stimulation (B). The conditioned media were collected from PN(non-transfected pontine neuclei neurons), tPN(transfected pontine neuclei neurons), GC(non-transfected granule cells), and tGC(transfected-granule cells). The result is summarized in C. The experiments were repeated independently three or four times.\nAfter electrical stimulation (1 mA, 30˜60V outside the cells) for 30 minutes on […] cells which were transfected with recombinant full length mNRG, the conditioned media obtained from the cells were collected and concentrated using centricon 10 and 100 (Millipore) to cut off large (>100 kd) and small (<10 kd) molecular weight proteins. […]"}, "[2]": {"test_system": "NMDA receptor NR2C subunit", "conditions": "7DIV granule cells, MK801 25 μM"}, "[3]": {"test_system": "GABAA receptor β2 subunit", "conditions": "7DIV granule cells, FIG. 10C; MK801 25 μM, CNQX 10 μM"}, "[4]": {"test_system": "cultured granule cells", "assay": "Release of NRG into conditioned media, read by CREB-phosphorylation of granule cells", "conditions": "living cultured granule cells", "protocol": "In D, using cerebellar granule cells, CREB-phosphorylation was checked after the conditioned medium stimulation. Serum-starved cerebellar granule cells were treated (for 5 to 10 minutes) with conditioned media collected from pontine nuclus neuron and granule cell cultures. The conditioned media from pontine nuclei neurons was used for stimulation in a, b and c. In d, e and f, conditioned media were prepared from granule cell culture.\nTo detect CREB phosphorylation, 7DIV cultured granule cells were fixed with 4% paraformaldehyde for 10 minutes after conditioned media stimulation for 10 to 15 minutes, and stained with a polyclonal anti-NRG β1 antibody, a polyclonal anti-PCREB antibody (BioLabs). […] Alexa™ dyes (Molecular probe) were used as a secondary antibody.\nThe soluble forms released by PMA stimulation (60 minutes) were enriched using a spin column and added into the cultured granule cells. The stimulated granule cells were stained with anti-phospho-CREB antibody after fixation. The conditioned media from the pontine nuclei neurons was used for stimulation (a, b and c) and that from granule cell cultures for stimulation (d, e and f). […] The conditioned media (c and f) should have contained cleaved endogenous and recombinant NRG The subtraction of b from c and e from f indicated CREB-phosphorylation induced by sNRG that was from recombinant mNRG. […]"}}, "data": [{"smiles": "CCCCCCCCCCCCCC(=O)O[C@@H]1[C@@H](C)[C@@]2(O)[C@@H](C=C(CO)C[C@]3(O)C(=O)C(C)=C[C@@H]23)[C@@H]2C(C)(C)[C@]12OC(C)=O", "note": "[PMA, phorbol-12-myristate-13-acetate]", "values": [{"measurement": "Tyrosine-phosphorylated bands of 180 kD with conditioned media from mNRG-transfected neurons", "setting": "[1]", "value": "clearly observed"}]}, {"smiles": "C[C@]12N[C@H](Cc3ccccc31)c1ccccc12", "note": "[MK801]", "values": [{"measurement": "NR2C mRNA increase at 100 Hz (high frequency) stimulation, block", "setting": "[2]; 30 minutes stimulation, TTX 1 μM, Cd 100 μM, EGTA 1 mM", "value": "strongly blocked"}, {"measurement": "NR2C elevated transcription at 1 and 100 Hz, block", "setting": "[2]; FIG. 10C", "value": "strongly blocked"}, {"measurement": "β2 transcription at 1.0 and 100 Hz stimulation, block", "setting": "[3]", "value": "blocked"}]}, {"smiles": "N#Cc1cc2[nH]c(=O)c(=O)[nH]c2cc1[N+](=O)[O-]", "note": "[CNQX]", "values": [{"measurement": "β2 transcription at 1.0 and 100 Hz stimulation, block", "setting": "[3]", "value": "blocked"}]}, {"smiles": "[Cl-].[K+]", "note": "[KC1]", "values": [{"measurement": "release of NRG by stimulation", "setting": "[4]", "value": "could not be observed"}]}]}
